Molecular target: T1, rat brain voltage-gated K+ channel, Kv1.3 (Rattus norvegicus, UniProt P15384)
T1 construct: expressed in transfected cells; host or cells: Xenopus oocytes (cRNA injection; pAS18 vector, SP6 transcription; clone from Prof; O. Pongs)
Assay: Assay of K+ channel inhibition: two-electrode voltage clamp of Kv1.3 expressed in Xenopus oocytes
Assay type: cell-based
Conditions: IC50 comparison with C-terminally amidated HsTX1
Protocol: Assay on inhibitory activity of the peptides on K^+ channels was performed in the following manner. The gene of the rat brain voltage-gated K^+ channel, Kv1.3 (Stuhmer et al., EMBO J., 8, vol. 11, pp. 3235-3244, 1988), which was graciously contributed by Prof. O. Pongs (Institute für Neurale Signalverarbeitung, Hamburg, Germany) was inserted into pAS18 vector according to a conventional technique. This vector was treated with EcoRI and then the resultant clone was transcribed in vitro with SP6 RNA polymerase using a transcription kit (Stratagene Inc., USA). The cRNA obtained was injected into Xenopus oocytes 16-72 hr prior to electrophysiological experiments.
The oocytes which had been expressed the Kv1.3 gene were added to a 100 μl-chamber filled with an ND96 solution (0.3 mM CaCl2, 1 mM MgCl2, 2 mM KCl and 96 mM NaCl in 5 mM Hepes buffer, pH 7.6) supplemented with 50 mg/ml of bovine serum albumin (BSA), and the ND96 solution was continuously perfused through reservoirs at a flow rate of 4 ml/min. The sample to be tested was separately dissolved to an ND96 solution and then added to the chamber by perfusion through a reservoir. The switching from one reservoir to another for each experiment was performed by means of Teflon valves. All measurements were made at room temperature (about 22° C.). […]

T1 sequence (P15384 whole entry): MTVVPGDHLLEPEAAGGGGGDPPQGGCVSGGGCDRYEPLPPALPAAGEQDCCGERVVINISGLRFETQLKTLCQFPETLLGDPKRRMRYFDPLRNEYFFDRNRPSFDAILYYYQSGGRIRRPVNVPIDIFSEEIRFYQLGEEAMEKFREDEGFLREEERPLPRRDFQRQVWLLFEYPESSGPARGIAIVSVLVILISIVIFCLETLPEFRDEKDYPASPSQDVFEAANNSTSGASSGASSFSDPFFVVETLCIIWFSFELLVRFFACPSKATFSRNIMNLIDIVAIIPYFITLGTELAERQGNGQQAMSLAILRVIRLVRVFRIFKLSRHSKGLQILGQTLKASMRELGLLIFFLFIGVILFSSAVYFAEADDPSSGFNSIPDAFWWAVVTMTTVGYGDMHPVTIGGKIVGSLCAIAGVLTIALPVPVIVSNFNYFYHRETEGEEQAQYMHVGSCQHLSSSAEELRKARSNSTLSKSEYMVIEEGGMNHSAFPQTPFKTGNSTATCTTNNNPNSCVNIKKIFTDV

CSCC[C@@H]1NC(=O)[C@@H]2CSSC[C@H](NC(=O)[C@H](CO)NC(=O)[C@H](C)N)C(=O)N[C@@H](CCCNC(=N)N)C(=O)N[C@@H]([C@@H](C)O)C(=O)N3CCC[C@H]3C(=O)N[C@@H](CCCCN)C(=O)N[C@@H](CC(=O)O)C(=O)N[C@H]3CSSC[C@H](NC(=O)[C@H](CCCCN)NC(=O)[C@H](CCCNC(=N)N)NC(=O)[C@H](CC(N)=O)NC1=O)C(=O)N[C@@H](CCCCN)C(=O)N[C@H]1CSSC[C@H](NC(=O)[C@@H]4CCCN4C(=O)[C@H](CC(=O)O)NC(=O)[C@H](C)NC3=O)C(=O)N[C@@H](CCCNC(=N)N)C(=O)N[C@@H](CCCCN)C(=O)N[C@@H](CCC(=O)O)C(=O)N[C@@H]([C@@H](C)O)C(=O)NCC(=O)N[C@@H](CSSC[C@@H](C(=O)O)NC(=O)[C@H](CCCNC(=N)N)NC(=O)[C@H](CC(N)=O)NC1=O)C(=O)N1CCC[C@H]1C(=O)N[C@@H](Cc1ccc(O)cc1)C(=O)NCC(=O)N[C@@H](CCCCN)C(=O)N2 [HsTX1-COOH]
activity relative to HsTX1 on Kv1.3: about one-fifth
